From US9067932B2, “Pyrazolopyridine kinase inhibitors” (Vertex Pharmaceuticals Incorporated, priority 2010, dated 2015) come the findings set out here.

Common to all, as to type: biochemical
One assay deals with PKC alpha kinase (Homo sapiens, UniProt P17252). Put plainly: PKC alpha coupled-enzyme (NADH consumption) kinase assay. The note with it: 4.5 nM PKC alpha, 130 μM ATP, 100 μM CaCl2, 30° C.; read-out: Ki PKC alpha. On the procedure: An assay buffer solution was prepared which consisted of 100 mM HEPES (pH 7.5), 10 mM MgCl2, 25 mM NaCl, 0.1 mM EDTA, 100 μM CaCl2 and 0.01% Brij. An enzyme buffer containing reagents to final assay concentrations of 0.002% Triton X-100, 100 μg/mL Phosphatidylserine, 20 μg/mL Diacylglycerol, 360 μM NADH, 3 mM phosphoenolpyruvate, 70 μg/mL pyruvate kinase, 24 μg/mL lactate dehydrogenase, 2 mM DTT, 150 μM substrate peptide ([…] SEQ ID NO. 1) and 4.5 nM PKC alpha kinase was prepared in assay buffer. To 16 μL of this enzyme buffer, in a 384 well plate, was added 1 μL of VRT stock solution in DMSO. The mixture was allowed to equilibrate for 10 mins at 30° C. The enzyme reaction was initiated by the addition of 16 μL stock ATP solution prepared in assay buffer to a final assay concentration of 130 μM. Initial rate data was determined from the rate of change of absorbance at 340 nm (corresponding to stoichiometric consumption of NADH) using a Molecular Devices Spectramax plate reader (Sunnyvale, Calif.) over 15 mins at 30° C. For each Ki determination 12 data points covering the VRT concentration range of 0-20 μM were obtained in duplicate (DMSO stocks were prepared from an initial 10 mM VRT stock with subsequent 1:2 serial dilutions). Ki values were calculated from initial rate data by non-linear regression using the Prism software package (Prism 4.0a, Graphpad Software, San Diego, Calif.).

The next assay addresses PKC theta kinase (Homo sapiens, UniProt Q04759). Description: PKC theta coupled-enzyme (NADH consumption) kinase assay. The note with it: 18 nM PKC theta, 240 μM ATP, 30° C., initial rate at 340 nm; read-out: Ki PKC theta. On the procedure:
(§1) An assay buffer solution was prepared which consisted of 100 mM HEPES (pH 7.5), 10 mM MgCl2, 25 mM NaCl, 0.1 mM EDTA and 0.01% Brij. […] To 60 μL of this enzyme buffer, in a 384 well plate, was added 2 μL of VRT stock solution in DMSO. […] The enzyme reaction was initiated by the addition of 5 μL stock ATP solution prepared in assay buffer to a final assay concentration of 240 μM. Initial rate data was determined from the rate of change of absorbance at 340 nm (corresponding to stoichiometric consumption of NADH) using a Molecular Devices Spectramax plate reader (Sunnyvale, Calif.) over 15 mins at 30° C. For each Ki determination 12 data points covering the VRT concentration range of 0-20 μM were obtained in duplicate (DMSO stocks were prepared from an initial 10 mM VRT stock with subsequent 1:2 serial dilutions). Ki values were calculated from initial rate data by non-linear regression using the Prism software package (Prism 4.0a, Graphpad Software, San Diego, Calif.).

The target of the next assay is PKC delta kinase (Homo sapiens, UniProt Q05655). Put plainly: PKC delta coupled-enzyme (NADH consumption) kinase assay. Conditions: 46 nM PKC delta, 150 μM ATP, 30° C., initial rate at 340 nm. On the procedure: as §1, with “To 16” for “To 60”, “added 1” for “added 2”, “of 16” for “of 5”, “of 150” for “of 240”
PKC delta kinase, sequence (Q05655 whole entry): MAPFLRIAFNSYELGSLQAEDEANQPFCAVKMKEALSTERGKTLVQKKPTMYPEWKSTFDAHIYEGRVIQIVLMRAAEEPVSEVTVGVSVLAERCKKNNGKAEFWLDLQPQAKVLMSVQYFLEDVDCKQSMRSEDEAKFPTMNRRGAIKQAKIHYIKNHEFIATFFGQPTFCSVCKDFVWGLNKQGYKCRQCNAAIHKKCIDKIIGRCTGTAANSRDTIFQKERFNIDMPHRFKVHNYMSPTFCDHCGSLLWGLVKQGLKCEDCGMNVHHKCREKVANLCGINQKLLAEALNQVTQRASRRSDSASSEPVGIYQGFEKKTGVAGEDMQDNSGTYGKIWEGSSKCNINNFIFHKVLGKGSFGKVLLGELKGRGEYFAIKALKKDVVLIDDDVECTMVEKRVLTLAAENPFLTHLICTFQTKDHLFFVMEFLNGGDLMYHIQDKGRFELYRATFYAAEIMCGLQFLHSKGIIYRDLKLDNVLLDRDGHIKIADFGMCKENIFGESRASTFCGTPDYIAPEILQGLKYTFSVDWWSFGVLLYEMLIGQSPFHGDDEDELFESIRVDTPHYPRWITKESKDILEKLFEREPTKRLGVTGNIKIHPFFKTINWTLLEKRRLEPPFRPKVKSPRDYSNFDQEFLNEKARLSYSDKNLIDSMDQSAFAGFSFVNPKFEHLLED

PKC theta kinase, sequence (Q04759 whole entry): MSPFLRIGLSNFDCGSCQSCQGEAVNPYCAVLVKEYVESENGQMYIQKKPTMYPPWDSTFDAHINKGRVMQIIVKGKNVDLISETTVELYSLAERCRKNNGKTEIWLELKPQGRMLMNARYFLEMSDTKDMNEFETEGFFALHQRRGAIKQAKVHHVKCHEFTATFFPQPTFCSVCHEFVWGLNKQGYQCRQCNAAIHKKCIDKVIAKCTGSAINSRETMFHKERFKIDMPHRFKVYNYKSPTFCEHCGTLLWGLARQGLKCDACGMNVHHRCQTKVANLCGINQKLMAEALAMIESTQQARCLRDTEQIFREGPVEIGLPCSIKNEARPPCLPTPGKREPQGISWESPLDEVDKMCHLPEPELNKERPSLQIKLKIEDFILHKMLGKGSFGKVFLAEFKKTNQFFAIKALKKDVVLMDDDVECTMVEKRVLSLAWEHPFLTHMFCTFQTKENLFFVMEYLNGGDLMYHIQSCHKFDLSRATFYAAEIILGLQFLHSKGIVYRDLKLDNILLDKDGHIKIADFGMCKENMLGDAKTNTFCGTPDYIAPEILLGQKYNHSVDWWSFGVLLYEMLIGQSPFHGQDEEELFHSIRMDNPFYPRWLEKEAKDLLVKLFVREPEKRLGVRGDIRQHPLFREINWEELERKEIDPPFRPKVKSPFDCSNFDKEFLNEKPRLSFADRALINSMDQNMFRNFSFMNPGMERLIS

As usually defined, the Ki is a dissociation constant, usually derived from enzyme kinetics or from competition with a known ligand. For the compound `CCC(O)C1CN(c2nc(-c3n[nH]c4ncccc34)c(F)cc2Cl)CCN1` (stereo not drawn) [Compound 18], the Ki on PKC alpha kinase was over 1250 nM; at PKC theta kinase, under 50 nM; at PKC delta kinase, under 500 nM.
As to `CCC(O)C1CN(c2nc(-c3n[nH]c4ncccc34)c(F)cc2Cl)CCN1` (stereo not drawn) [Compound 19], the Ki was under 2800 nM at PKC alpha kinase, under 1 nM at PKC theta kinase and under 50 nM at PKC delta kinase.
For `CC(C)C(O)C1CN(c2nc(-c3n[nH]c4ncccc34)c(F)cc2Cl)CCN1` (stereo not drawn) [Compound 20] the same measures were under 500 nM, under 1 nM and under 50 nM.
For `CC(C)C(O)C1CN(c2nc(-c3n[nH]c4ncccc34)c(F)cc2Cl)CCN1` (stereo not drawn) [Compound 21] the same measures were under 2800 nM, under 50 nM and under 500 nM.
For `CC(C)C(N)C1CCN(c2nc(-c3n[nH]c4ncccc34)c(F)cc2F)C1` (stereo not drawn) [Compound 22], the Ki on PKC alpha kinase was under 2800 nM; at PKC theta kinase it was under 50 nM; at PKC delta kinase it was under 500 nM.
As for `CC(C)C(N)[C@H]1CCN(c2nc(-c3n[nH]c4ncccc34)c(F)cc2Cl)C1` (stereo partly drawn) [Compound 23], the figures for the Ki on PKC alpha kinase, at PKC theta kinase and on PKC delta kinase were under 500 nM, under 1 nM and under 50 nM, respectively.
Take `CC(C)C(N)[C@H]1CCN(c2nc(-c3n[nH]c4ncccc34)c(F)cc2Cl)C1` (stereo partly drawn) [Compound 24]: the Ki at PKC alpha kinase is over 1250 nM; on PKC theta kinase, under 50 nM; on PKC delta kinase, under 500 nM.
As to `CC[C@H](O)[C@@H]1CN(c2nc(-c3n[nH]c4ncccc34)c(F)cc2F)CCN1` [Compound 25], the Ki on PKC alpha kinase was over 1250 nM; on PKC theta kinase, under 50 nM; at PKC delta kinase, under 500 nM.
Take `CC(C)(C)C(O)C1CN(c2nc(-c3n[nH]c4ncccc34)c(F)cc2Cl)CCN1` (stereo not drawn) [Compound 26]: the Ki at PKC alpha kinase was under 500 nM; at PKC theta kinase, under 1 nM; at PKC delta kinase it was under 10 nM.
With `CC(C)(C)C(O)C1CN(c2nc(-c3n[nH]c4ncccc34)c(F)cc2F)CCN1` (stereo not drawn) [Compound 27], the Ki on PKC alpha kinase is under 500 nM; on PKC theta kinase, under 1 nM; at PKC delta kinase, under 10 nM.
The matching figures for `CC(C)C(N)[C@H]1CCN(c2nc(-c3n[nH]c4ncccc34)c(F)cc2F)C1` (stereo partly drawn) [Compound 28]: under 500 nM, under 1 nM and under 50 nM.
As for `OC(C1CC1)C1CN(c2nc(-c3n[nH]c4ncccc34)c(F)cc2F)CCN1` (stereo not drawn) [Compound 29], the Ki on PKC alpha kinase was under 500 nM; at PKC theta kinase, under 1 nM; on PKC delta kinase it was under 50 nM.
For `CC(O)(C1CC1)C1CN(c2nc(-c3n[nH]c4ncccc34)c(F)cc2Cl)CCN1` (stereo not drawn) [Compound 30] the same measures were under 500 nM, under 1 nM and under 10 nM.
Regarding `OC(C1CC1)C1CN(c2nc(-c3n[nH]c4ncccc34)c(F)cc2Cl)CCN1` (stereo not drawn) [Compound 31], the figures for the Ki on PKC alpha kinase, on PKC theta kinase and on PKC delta kinase were under 2800 nM, under 1 nM and under 50 nM, respectively.
With `CC(C)[C@@](C)(O)[C@@H]1CN(c2nc(-c3n[nH]c4ncccc34)c(F)cc2O)CCN1` [Compound 32], the Ki on PKC alpha kinase was under 500 nM; at PKC theta kinase, under 1 nM; on PKC delta kinase, under 10 nM.
For `COCC(C)(O)C1CN(c2nc(-c3n[nH]c4ncccc34)c(F)cc2Cl)CCN1` (stereo not drawn) [Compound 33] the same measures were over 1250 nM, under 50 nM and under 500 nM.
Take `CC(C)[C@@](C)(O)C1CN(c2nc(-c3n[nH]c4ncccc34)c(C#N)cc2F)CCN1` (stereo partly drawn) [Compound 34]: the values for the Ki on PKC alpha kinase, at PKC theta kinase and at PKC delta kinase were over 1250 nM, under 50 nM and over 1250 nM, respectively.
In the case of `CC(C)C(N)[C@H]1CCN(c2nc(-c3n[nH]c4ncccc34)c(F)cc2C#N)C1` (stereo partly drawn) [Compound 37], the Ki was under 2800 nM on PKC alpha kinase, under 50 nM at PKC theta kinase and under 500 nM on PKC delta kinase.
For `CC(C)[C@](C)(O)[C@@H]1CN(c2nc(-c3n[nH]c4ncccc34)c(F)cc2Cl)CCN1` [Compound 38] the same measures were under 2800 nM, under 50 nM and under 500 nM.
Regarding `CC(CO)[C@@](C)(O)[C@@H]1CN(c2nc(-c3n[nH]c4ncccc34)c(F)cc2F)CCN1` (stereo partly drawn) [Compound 39], the Ki on PKC alpha kinase is over 1250 nM; on PKC theta kinase, under 50 nM; on PKC delta kinase, under 500 nM.
For `CC(CO)[C@@](C)(O)[C@@H]1CN(c2nc(-c3n[nH]c4ncccc34)c(F)cc2F)CCN1` (stereo partly drawn) [Compound 40] the same measures were under 500 nM, under 1 nM and under 50 nM.
For `CC(C)(O)[C@@](C)(O)[C@@H]1CN(c2nc(-c3n[nH]c4ncccc34)c(F)cc2F)CCN1` [Compound 41], the Ki on PKC alpha kinase was under 500 nM; at PKC theta kinase, under 1 nM; at PKC delta kinase it was under 500 nM.
On to `CC(C)(O)[C@@](C)(O)[C@@H]1CN(c2nc(-c3n[nH]c4ncccc34)c(F)cc2Cl)CCN1` [Compound 42], for which the results for the Ki on PKC alpha kinase, at PKC theta kinase and at PKC delta kinase were under 2800 nM, under 1 nM and under 50 nM, respectively.
Take `CC(C)[C@@](C)(O)[C@@H]1CN(c2nc(-c3n[nH]c4ncccc34)c(C#N)cc2F)CCN1` [Compound 43]: the Ki is over 1250 nM on PKC alpha kinase, under 50 nM at PKC theta kinase and over 1250 nM at PKC delta kinase.
Consider `CC(C)[C@@](C)(O)[C@@H]1CN(c2nc(-c3n[nH]c4ncccc34)c(F)cc2CO)CCN1` [Compound 44], for which the values for the Ki on PKC alpha kinase, at PKC theta kinase and on PKC delta kinase were under 500 nM, under 1 nM and under 10 nM, respectively.
The matching figures for `CC(CO)[C@@](C)(O)[C@@H]1CN(c2nc(-c3n[nH]c4ncccc34)c(F)cc2Cl)CCN1` (stereo partly drawn) [Compound 45]: over 1250 nM, under 500 nM and over 1250 nM.
